Results taken from patent US20080159987A1 (priority 2007, published 2008).

Tests used:
IBS patients with RLS [1] = test: Open-label, observational pilot trial: GI (IBS) symptom improvement questionnaire; format: in vivo, human
Excerpt: (§1) Patients visiting a community-based adult gastroenterology clinic over a 4-month period were eligible for the study if they presented with functional bowel symptoms and had abnormal lactulose breath test (LBT) results. Patients were excluded if they had celiac disease, Crohn's disease, pancreatic insufficiency, ulcerative colitis, scleroderma, diabetes, chronic renal failure, or surgeries predisposing them to SIBO. A diagnosis of RLS was confirmed using the Johns Hopkins validated interview process.
(§2) This was followed by long-term administration of the prokinetic medicine tegaserod (ZELNORM® produced by Novartis Pharmaceuticals Corporation, East Hanover, N.J.) 3 mg nightly plus short-term treatment with zinc 220 mg/d for one month for increased small intestinal permeability and a bifidobacteria-based probiotic (FLORA-Q® produced by Kenwood Therapeutics, Fairfield, N.J.) once daily for one month. Two patients were treated with rifaximin alone.
Each patient completed a questionnaire identifying the occurrence and rating the severity of six IBS symptoms experienced during the week before the LBT was conducted (baseline): abdominal pain, bloating, constipation, diarrhea, flatulence, and postprandial fullness. A history consistent with RLS and fibromyalgia was sought. Serum ferritin levels were measured at baseline.
(§3) The percentage of RLS symptom improvement was assessed at the end of follow-up.
(§4) The remaining two patients (the neurology clinic patient and propositus) received a modified treatment regimen.
Percentages of RLS and IBS symptom improvement as well as global IBS symptom improvement were assessed at a mean of 107 days (range, 22-450 days). […] The ten patients who responded included the three patients who had borderline or low serum levels of iron at baseline. […] Eight of the ten patients with at least 80% improvement in RLS symptoms were followed long-term (mean, 139 days; range, 54-450 days), and 5 of the 8 patients reported complete (100%) resolution of RLS symptoms at the last follow-up visit.

IBS patients with RLS [2] = test: Follow-up lactulose breath test (LBT); format: in vivo, human; details: neurology patient, two months after completing rifaximin therapy
Description: Patients consumed a low carbohydrate dinner and fasted overnight. Breath samples were collected every 15 minutes for 180 minutes and were analyzed by gas chromatography (using, for example, a QUINTRON DP PLUS MICROLYZER™ manufactured by QuinTron Instrument Company, Milwaukee, Wis.) for levels of hydrogen and methane. After a baseline recording, patients consumed 10 g of lactulose powder (for example, KRISTALOSE® produced by Bertek Pharmaceuticals Inc, Sugar Land, Tex.) dissolved in 240 mL of water. An abnormal LBT result was defined as an increase of greater than 20 ppm above baseline levels for hydrogen and/or methane gas 180 minutes or less after ingesting lactulose. An abnormal flatline LBT result was defined as a lack of a greater than 5-ppm increase above baseline levels for either hydrogen or methane during the 180-minute test. The role of SIBO in IBS and diseases other than restless legs syndrome, as well as the efficacy of breath tests in the diagnosis of SIBO is discussed in U.S. Pat. Nos. 6,861,053; 6,805,852; 7,056,686; and 7,048,906 to Lin and Pimentel, the disclosures of each of which are expressly incorporated by reference herein.

[3] = cited from earlier work
IBS patients with RLS [4] = test: Open-label, observational pilot trial: RLS symptom improvement; format: in vivo, human
Excerpt: It was suspected that the patient might have postinfectious IBS and SIBO.
as §1, §2, §3
Thirteen IBS patients with confirmed RLS were included in the study. Eleven of these 13 patients were originally included in a SIBO study of IBS: 19 of 161 patients with an abnormal LBT result thought they had RLS. A diagnosis of RLS was confirmed in 11 of these 19 patients by the Johns Hopkins validated interview process. The remaining 2 of 13 patients with RLS (1 was the propositus and the other was referred from a neurology clinic) had been previously evaluated and treated for RLS by a neurologist.
as §4
Percentages of RLS and IBS symptom improvement as well as global IBS symptom improvement were assessed at a mean of 107 days (range, 22-450 days). […] The ten patients who responded included the three patients who had borderline or low serum levels of iron at baseline. […]

[5] = day 11, after ten days of rifaximin therapy
[6] = end of follow-up (mean 107 days), rifaximin followed by tegaserod, zinc, probiotic in 11 of 13
[7] = last follow-up visit, 13 patients

Compound: CO[C@H]1/C=C/O[C@@]2(C)Oc3c(C)c(O)c4c(O)c(c5c(nc6cc(C)ccn65)c4c3C2=O)NC(=O)/C(C)=C\C=C\[C@H](C)[C@H](O)[C@@H](C)[C@@H](O)[C@@H](C)[C@H](OC(C)=O)[C@@H]1C [rifaximin]
- GI symptom improvement: abdominal pain (IBS patients with RLS [1]; [5]): 74%
- GI symptom improvement: bloating (IBS patients with RLS [1]; [5]): 70%
- GI symptom improvement: constipation (IBS patients with RLS [1]; [5]): 64%
- GI symptom improvement: diarrhea (IBS patients with RLS [1]; [5]): 73%
- GI symptom improvement: flatulence (IBS patients with RLS [1]; [5]): 47%
- GI symptom improvement: postprandial fullness (IBS patients with RLS [1]; [5]): 65%
- GI symptom improvement: abdominal pain (IBS patients with RLS [1]; [6]): 81%
- GI symptom improvement: bloating (IBS patients with RLS [1]; [6]): 76%
- GI symptom improvement: constipation (IBS patients with RLS [1]; [6]): 59%
- GI symptom improvement: diarrhea (IBS patients with RLS [1]; [6]): 68%
- GI symptom improvement: flatulence (IBS patients with RLS [1]; [6]): 55%
- GI symptom improvement: postprandial fullness (IBS patients with RLS [1]; [6]): 67%
- global symptom improvement rated as greatly improved (IBS patients with RLS [1]; [7]): 6 patients
- global symptom improvement rated as mildly improved (IBS patients with RLS [1]; [7]): two
- global symptom improvement rated as moderately improved (IBS patients with RLS [1]; [7]): five
- LBT result after therapy (IBS patients with RLS [2]): normal
- solubility in water [3]: practically insoluble in water
- patients reporting complete (100%) resolution of RLS symptoms at the last follow-up visit (IBS patients with RLS [4]; of 8 responders followed long-term (mean 139 days; range 54-450 days)): 5 of the 8
- patients exhibiting at least 80% improvement in RLS symptoms at the last follow-up visit (IBS patients with RLS [4]; rifaximin 400 mg three times daily for ten days, in 11 of 13 followed by tegaserod, zinc, probiotic, assessed at mean 107 days (range 22-450)): Ten of 13
- response for both RLS and IBS symptoms (IBS patients with RLS [4]; single patient (propositus), empiric treatment with rifaximin): dramatic, rapid, and prolonged response
